Test results taken from DBAASP.
≈ marks a conversion by molar mass, not a printed value. Where “and” joins values, the source holds several entries; their conditions need not be identical. Equal values may be shown once. Values belong to the compound of their own block, whether it stands above or below them.

Columns and labels:
Assay in all cases: ≥ marks a high value that may be exact or a test limit, other limits are often not marked, values filed in µg/mL are converted to µM
[1] = test system: Staphylococcus aureus ATCC 25923
[2] = test system: Bacillus subtilis ATCC 6633
[3] = test system: Pseudomonas aeruginosa ATCC BAA-427
[4] = test system: Escherichia coli ATCC 10536
[5] = test system: Escherichia coli ATCC 25922
[6] = test system: Pseudomonas aeruginosa ATCC 27853
[7] = test system: Candida albicans ATCC 64550
[8] = test system: Candida krusei ATCC 20029
[9] = test system: Staphylococcus epidermidis ATCC 12228
[10] = test system: Acinetobacter baumannii ATCC 19606
[11] = test system: Staphylococcus aureus ATCC 33591
[12] = test system: Cryptococcus gattii ATCC 32608
[13] = test system: Cryptococcus neoformans ATCC 24067
[14] = test system: Staphylococcus aureus FDA 209P
[15] = test system: Batrachochytrium dendrobatidis
[16] = test system: Salmonella enterica subsp. enterica serovar Typhimurium ATCC 14028
Bacillus megaterium = test system: Bacillus megaterium
Escherichia coli ML-35 = test system: Escherichia coli ML-35
[17] = test system: Corynebacterium glutamicum ATCC 13032
[18] = test system: Staphylococcus aureus ATCC 9144
[19] = test system: Pseudomonas aeruginosa ATCC 9027
[20] = test system: Escherichia coli ATCC 8739
[21] = test system: Staphylococcus aureus ATCC 6538
Escherichia coli HB101 = test system: Escherichia coli HB101
[22] = test system: Mycobacterium tuberculosis H37Rv

SMILES: CC[C@H](C)[C@H](N)C(=O)N[C@@H](Cc1c[nH]c2ccccc12)C(=O)N[C@@H](CC(C)C)C(=O)N[C@H](C(=O)N[C@@H](C)C(=O)N[C@@H](CC(C)C)C(=O)N[C@@H](CCCCN)C(=O)N[C@@H](Cc1ccccc1)C(=O)N[C@@H](CC(C)C)C(=O)NCC(=O)N[C@@H](CCCCN)C(=O)N[C@@H](CC(N)=O)C(=O)N[C@@H](CC(C)C)C(=O)NCC(=O)N[C@@H](CCCCN)C(N)=O)[C@@H](C)O [IWLTALKFLGKNLGK]
MIC [8]: ≥ 37.6 µM
MIC [9]: 4.18 µM (≈ 7.11 µg/mL)
MIC [10]: 5.27 µM (≈ 8.97 µg/mL)
MIC [6]: 37.6 µM (≈ 64 µg/mL)
MIC [11]: 4.7 µM (≈ 8 µg/mL)
MIC [12]: 3.73 µM (≈ 6.35 µg/mL)
MIC [13]: 14.9 µM (≈ 25.4 µg/mL)
MIC [5]: 14.9 µM (≈ 25.4 µg/mL)

SMILES: CC[C@H](C)[C@H](NC(=O)CN)C(=O)N[C@@H](Cc1ccccc1)C(=O)N[C@@H](CO)C(=O)N[C@@H](CCCCN)C(=O)N[C@@H](CC(C)C)C(=O)N[C@@H](C)C(=O)NCC(=O)N[C@@H](CCCCN)C(=O)N[C@@H](CCCCN)C(=O)N[C@H](C(=O)N[C@@H](CCCCN)C(=O)N[C@@H](CC(N)=O)C(=O)N[C@@H](CC(C)C)C(=O)N[C@@H](CC(C)C)C(=O)N[C@H](C(=O)N[C@@H](CO)C(=O)NCC(=O)N[C@@H](CC(C)C)C(=O)N[C@@H](CCCCN)C(=O)N[C@@H](CC(N)=O)C(=O)N[C@H](C(=O)NCC(=O)N[C@@H](CCCCN)C(=O)N[C@@H](CCC(=O)O)C(=O)N[C@H](C(=O)NCC(=O)N[C@@H](CCSC)C(=O)N[C@@H](CC(=O)O)C(=O)N[C@H](C(=O)N[C@H](C(=O)N[C@@H](CCCN=C(N)N)C(=O)N[C@H](C(=O)NCC(=O)N[C@H](C(=O)N[C@@H](CC(=O)O)C(=O)N[C@H](C(=O)N[C@@H](C)C(=O)NCC(=O)N[C@H]1CSSC[C@@H](C(=O)O)NC(=O)[C@H](CCC(=O)O)NC(=O)CNC(=O)[C@H](CCCCN)NC(=O)[C@H]([C@@H](C)CC)NC(=O)[C@H](CCCCN)NC1=O)[C@@H](C)CC)[C@@H](C)CC)[C@@H](C)O)C(C)C)C(C)C)C(C)C)C(C)C)[C@@H](C)CC)[C@@H](C)CC [GIFSKLAGKKIKNLLISGLKNVGKEVGMDVVRTGIDIAGCKIKGEC]
MIC [14]: 4.3 µM (≈ 20.6 µg/mL)
MIC [15]: 25 µM and 12.5 µM
MIC [5]: 2.8 µM (≈ 13.4 µg/mL)

SMILES: CC[C@H](C)[C@H](NC(=O)[C@H](CCCCN)NC(=O)[C@H](CCCCN)NC(=O)[C@H](CC(C)C)NC(=O)[C@H](CCCCN)NC(=O)[C@H](CCC(=O)O)NC(=O)[C@H](CCCCN)NC(=O)[C@@H](NC(=O)[C@H](CCCCN)NC(=O)[C@H](CC(N)=O)NC(=O)[C@H](CCCN=C(N)N)NC(=O)[C@H](C)NC(=O)[C@H](CCCCN)NC(=O)[C@H](CCCN=C(N)N)NC(=O)[C@H](CC(C)C)NC(=O)[C@H](CCCN=C(N)N)NC(=O)[C@H](CCCCN)NC(=O)[C@H](CCCN=C(N)N)NC(=O)[C@H](CC(C)C)NC(=O)CN)[C@@H](C)CC)C(=O)O [GLRKRLRKARNKIKEKLKKI]
MIC [1]: 8 µM (≈ 19.8 µg/mL)
MIC [6]: 1 µM (≈ 2.48 µg/mL)
MIC [16]: 16 µM (≈ 39.6 µg/mL)
MIC [5]: 4 µM (≈ 9.91 µg/mL)
MIC (Bacillus megaterium): 8 µM (≈ 19.8 µg/mL)
MIC (Escherichia coli ML-35): 4 µM (≈ 9.91 µg/mL)

SMILES: NCCCC[C@H](NC(=O)[C@H](Cc1c[nH]c2ccccc12)NC(=O)[C@H](Cc1ccccc1)NC(=O)[C@@H](N)Cc1c[nH]c2ccccc12)C(=O)N[C@@H](Cc1c[nH]c2ccccc12)C(=O)N[C@@H](Cc1c[nH]c2ccccc12)C(=O)N[C@@H](CCCN=C(N)N)C(=O)N[C@@H](CCCN=C(N)N)C(=O)N[C@@H](CCCN=C(N)N)C(=O)N[C@@H](CCCN=C(N)N)C(=O)N[C@@H](CCCN=C(N)N)C(N)=O [WFWKWWRRRRR]
MIC [19]: 4.6 µM (≈ 8.36 µg/mL)
MIC [20]: 3.1 µM (≈ 5.64 µg/mL)
MIC [21]: 1.7 µM (≈ 3.09 µg/mL)
MIC [7]: ≥ 100 µM

SMILES: CC[C@H](C)[C@H](NC(=O)[C@@H]1CCCN1C(=O)[C@H](CCCN=C(N)N)NC(=O)CNC(=O)[C@H](C)NC(=O)[C@H](CCCN=C(N)N)NC(=O)[C@H](Cc1cnc[nH]1)NC(=O)[C@H](C)NC(=O)[C@H](C)N)C(=O)N[C@@H](Cc1cnc[nH]1)C(=O)N[C@@H](CC(=O)O)C(=O)N[C@@H](C)C(=O)NCC(=O)N[C@H](C(=O)N[C@H](C(=O)N[C@@H](CCCCN)C(=O)N[C@@H](CCC(N)=O)C(=O)O)C(C)C)C(C)C [AAHRAGRPIHDAGVVKQ]
MIC [22]: ≥ 112 µM

Next, values leading:

MIC [1]: 8 µM (≈ 12.1 µg/mL)
MIC [2]: 2 µM (≈ 3.04 µg/mL)
MIC [3]: 8 µM (≈ 12.1 µg/mL)
MIC [4]: 4 µM (≈ 6.07 µg/mL)
MIC [5]: 8 µM (≈ 12.1 µg/mL)
SMILES: CC[C@H](C)[C@H](N)C(=O)N[C@@H](CC(C)C)C(=O)NCC(=O)N[C@@H](CCCCN)C(=O)N[C@H](C(=O)N[C@@H](Cc1c[nH]c2ccccc12)C(=O)N[C@@H](CCC(=O)O)C(=O)NCC(=O)N[C@@H](CCCCN)C(=O)N[C@@H](CCCCN)C(=O)N[C@@H](CO)C(=O)N[C@@H](CC(C)C)C(=O)N[C@@H](Cc1ccccc1)C(N)=O)[C@@H](C)CC [ILGKIWEGKKSLF]

MIC [1]: 3.48 µM (≈ 5 µg/mL)
MIC [6]: 3.48 µM (≈ 5 µg/mL)
MIC [5]: 6.97 µM and 5.22 µM
MIC [7]: ≥ 100 µM
SMILES: C[C@H](NC(=O)[C@H](Cc1c[nH]c2ccccc12)NC(=O)[C@H](CCCN=C(N)N)NC(=O)[C@@H](N)Cc1ccc(O)cc1)C(=O)N[C@@H](CCCN=C(N)N)C(=O)N[C@@H](Cc1c[nH]c2ccccc12)C(=O)N[C@@H](Cc1c[nH]c2ccccc12)C(=O)N[C@@H](CCCN=C(N)N)C(=O)N[C@@H](CCCN=C(N)N)C(N)=O [YRWARWWRR]

MIC [17]: 0.8 µM (≈ 1.55 µg/mL)
MIC [6]: 3.1 µM (≈ 6.01 µg/mL)
MIC [18]: 12.5 µM (≈ 24.3 µg/mL)
MIC [5]: 3.1 µM (≈ 6.01 µg/mL)
SMILES: CC(C)[C@H](NC(=O)[C@H](CCCCN)NC(=O)[C@H](C)NC(=O)[C@@H](NC(=O)[C@@H](NC(=O)[C@H](CCCN=C(N)N)NC(=O)[C@H](CCCN=C(N)N)NC(=O)[C@H](Cc1c[nH]c2ccccc12)NC(=O)[C@H](Cc1c[nH]c2ccccc12)NC(=O)CN)[C@@H](C)O)C(C)C)C(=O)N[C@@H](CCCN=C(N)N)C(=O)N[C@@H](CC(N)=O)C(=O)N[C@@H](C)C(=O)NCC(=O)N[C@@H](CCCN=C(N)N)C(=O)N[C@@H](CCCCN)C(N)=O [GWWRRTVAKVRNAGRK]

MIC [17]: ≥ 100 µM
MIC [6]: > 100 µM
MIC [18]: ≥ 100 µM
MIC [5]: > 100 µM
MIC (Escherichia coli HB101): ≥ 100 µM
SMILES: NC(N)=NCCC[C@H](NC(=O)[C@@H](N)CO)C(=O)N[C@@H](Cc1c[nH]c2ccccc12)C(=O)N1CCC[C@H]1C(=O)N[C@@H](CO)C(=O)N1CCC[C@H]1C(=O)NCC(=O)N[C@@H](CCCN=C(N)N)C(=O)N1CCC[C@H]1C(=O)N[C@@H](CCCN=C(N)N)C(=O)N1CCC[C@H]1C(=O)N[C@@H](Cc1ccccc1)C(=O)N1CCC[C@H]1C(=O)NCC(=O)O [SRWPSPGRPRPFPG]
